The values below come from US5846755A (priority 1995, dated 1998).

Read-outs that look alike come from different tables or passages of the source. Square brackets hold non-standard residues; d marks the D form. Peptide text beside a SMILES is read from it. * marks the point of attachment. Pip = O=C(O)[C@@H]1CCCCN1; Cbz = O=C(OCc1ccccc1)* Where only a bound is given, the exact number is not on record here.

The target in series [1] is enzyme purified from the venom of Crotalus Adamanteus (hemorrhagin) (Crotalus adamanteus, UniProt P34179). It counts as biochemical.
The target of series [2] is T1, recombinant human gelatinase A (Homo sapiens, UniProt P08253).
T1 construct: purchased Strangeways Laboratories, Cambridge, UK
T1 sequence (P08253 110-660): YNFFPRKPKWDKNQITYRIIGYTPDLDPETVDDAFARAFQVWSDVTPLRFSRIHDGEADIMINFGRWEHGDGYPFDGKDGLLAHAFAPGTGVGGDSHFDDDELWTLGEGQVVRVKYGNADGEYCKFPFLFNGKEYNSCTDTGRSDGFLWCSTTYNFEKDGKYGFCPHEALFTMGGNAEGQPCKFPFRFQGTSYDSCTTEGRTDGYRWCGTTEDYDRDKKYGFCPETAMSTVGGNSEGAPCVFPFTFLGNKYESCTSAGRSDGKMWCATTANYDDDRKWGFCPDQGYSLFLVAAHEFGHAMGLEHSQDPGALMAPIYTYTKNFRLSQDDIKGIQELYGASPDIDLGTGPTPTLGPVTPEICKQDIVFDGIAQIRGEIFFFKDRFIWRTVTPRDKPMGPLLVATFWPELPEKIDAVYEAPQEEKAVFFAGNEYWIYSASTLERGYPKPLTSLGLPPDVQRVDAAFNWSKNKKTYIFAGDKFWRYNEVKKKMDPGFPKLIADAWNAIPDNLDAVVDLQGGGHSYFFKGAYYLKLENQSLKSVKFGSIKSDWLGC
Briefly: In vitro effects on recombinant human gelatinase A. It counts as biochemical. The source says:
Assays on human gelatinase A, an enzyme released in high concentration by any kind of tumor cells during the process of metastatization, and recognized also as a product of stimulated cells in many pathological processes, have been performed using the protein obtained by recombinant biotechnology (Strangeways Laboratories, Cambridge, UK). The enzymatic activity has been followed over time, measuring the amount of fluorescent substrate cleaved by the enzyme, in the presence or absence of synthetic compounds (Perkin Elmer L50 B fluorimeter).

Series [3] concerns the target neutrophil collagenase (recombinant human) (Homo sapiens, UniProt P22894). The series can be described thus: In vitro assays on recombinant human collagenase. It counts as biochemical. The procedure:
Using the same enzymatic determination already described (fluorimetric detection of cleavage of a substrate peptide containing a fluorescent moiety), some of the compounds were tested on neutrophil collagenase, an enzyme described as participating in any kind of inflammatory reaction in mammalian bodies. In this case, the purified enxzyme was also obtained by recombinant means.

Series [4] can be described thus: Resistance to proteolytic activity in stomach juices (rat stomach homogenate, HPLC). As to conditions: 37° C.
Procedure: To check if the compounds of the present invention are resistant to proteolytic activity in stomach juices and, therefore, could be administered orally, the stomachs of fasting rats were homogenized in physiological solutions (1:1). 300 microliters of solutions of the compounds (1 mg/ml of saline) were incubated with 0.5 ml of stomach homogenates (37° C.).
The target of series [5] is T2, recombinant human gelatinase B (Homo sapiens, UniProt P14780).
T2 construct: purchased Stangeways Laboratories, Cambridge, UK (so in the source)
Briefly: In vitro effects on recombinant human gelatinase B. It counts as biochemical. The procedure:
Assays on human gelatinase B, another enzyme released by tumor cells, were performed using also, in this case, the protein obtained by recombinant biotechnology Stangeways Laboratories, Cambridge, UK). As usual, the enzymatic activity was followed over time, measuring the amount of fluorescent substrate cleaved by the enzyme, in the presence or absence of synthetic compounds (Perkin Elmer L50 B fluorimeter).

Chain of enzyme purified from the venom of Crotalus Adamanteus (hemorrhagin) (P34179 whole entry, looked up): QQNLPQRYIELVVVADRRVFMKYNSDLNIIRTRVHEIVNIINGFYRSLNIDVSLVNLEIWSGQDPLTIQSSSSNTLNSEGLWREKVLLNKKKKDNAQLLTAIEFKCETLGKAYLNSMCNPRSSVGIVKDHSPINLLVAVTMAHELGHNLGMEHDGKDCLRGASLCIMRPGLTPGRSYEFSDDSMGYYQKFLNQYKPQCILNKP
Chain of neutrophil collagenase (recombinant human) (P22894 101-467): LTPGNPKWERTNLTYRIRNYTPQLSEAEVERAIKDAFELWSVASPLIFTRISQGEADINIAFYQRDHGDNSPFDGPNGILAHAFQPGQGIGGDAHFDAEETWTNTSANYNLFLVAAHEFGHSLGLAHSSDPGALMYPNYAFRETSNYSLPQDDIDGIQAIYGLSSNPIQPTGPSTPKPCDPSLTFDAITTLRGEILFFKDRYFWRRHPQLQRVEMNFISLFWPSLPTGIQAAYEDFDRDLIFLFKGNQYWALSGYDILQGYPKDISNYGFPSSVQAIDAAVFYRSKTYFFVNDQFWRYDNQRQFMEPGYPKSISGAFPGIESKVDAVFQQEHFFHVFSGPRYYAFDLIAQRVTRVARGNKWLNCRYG
T2 sequence (P14780 94-707): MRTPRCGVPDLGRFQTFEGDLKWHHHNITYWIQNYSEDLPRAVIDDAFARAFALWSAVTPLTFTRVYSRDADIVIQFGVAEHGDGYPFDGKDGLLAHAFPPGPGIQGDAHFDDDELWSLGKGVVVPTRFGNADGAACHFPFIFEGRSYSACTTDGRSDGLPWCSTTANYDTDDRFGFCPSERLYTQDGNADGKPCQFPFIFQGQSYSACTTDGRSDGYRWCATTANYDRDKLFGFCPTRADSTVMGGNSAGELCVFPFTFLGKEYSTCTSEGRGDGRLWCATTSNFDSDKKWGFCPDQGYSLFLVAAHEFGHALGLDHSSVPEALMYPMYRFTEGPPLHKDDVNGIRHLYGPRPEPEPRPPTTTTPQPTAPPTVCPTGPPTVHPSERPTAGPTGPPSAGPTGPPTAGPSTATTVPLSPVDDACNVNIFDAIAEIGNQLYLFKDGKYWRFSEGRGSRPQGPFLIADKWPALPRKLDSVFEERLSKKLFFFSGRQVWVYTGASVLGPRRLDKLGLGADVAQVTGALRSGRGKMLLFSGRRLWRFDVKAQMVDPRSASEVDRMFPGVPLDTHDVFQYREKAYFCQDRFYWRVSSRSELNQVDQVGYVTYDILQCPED

Turning to “2-FUR--(L)--Phe--(S)--Cyt--OH [Compound 11]”, the IC50 in series [1] (read-out: IC50) was 53 nM. Further, the “% Inhibition” value is 40% in series [2] (Concentration 8.7 × 10^-7 M) and 27% in series [3] (Concentration 2.2 × 10^-5 M). Moreover, in series [4], the “Residue after 60 Minutes” value came out at 100%. The “Residue after 120 Minutes” value in series [4] is more than 95%.

Consider `COc1ccc2c(c1)C(CC(=O)NC(CC(C)C)C(=O)N1Cc3[nH]c4ccccc4c3CC1C(=O)O)CC2=O` (mixture of isomers) [Compound 23, 5-MIA--(L)--Leu--(S)--Cyt--OH], for which, in series [1] (read-out: IC50), the 50% inhibitory concentration (IC50) amounted to 75 nM. For the same compound, the “% Inhibition” value in series [2] (Concentration 8.0 × 10^-7 M) is 40%.

`COc1ccc2[nH]c(C(=O)N[C@@H](CC3CCCCC3)C(=O)N3Cc4[nH]c5ccccc5c4C[C@H]3C(=O)O)cc2c1` [Compound 1, 5--MIC--Cha--(S)--Cyt--OH]: in series [1], the midpoint of inhibition, the IC50, lay at 29 nM. Further, the inhibition at 0.7 µM in series [2] (Concentration 7.0 × 10^-7 M) stood at 25%.

As to `CC(C)C[C@H](NC(=O)CSc1ncccn1)C(=O)N1Cc2[nH]c3ccccc3c2C[C@H]1C(=O)O` [Compound 2, 2-PMTA--(L)--Leu--(S)--Cyt--OH], the IC50 in series [1] (read-out: IC50) was found to be 230 nM.

Turning to `CC(C)C[C@H](NC(=O)c1nccnc1N)C(=O)N1Cc2[nH]c3ccccc3c2C[C@H]1C(=O)O` [Compound 4, 3-APZC--(L)--Leu--(S)--Cyt--OH], in series [1] (read-out: IC50), the IC50 came to 57 nM.

With `COc1cccc2cc(C(=O)N[C@@H](CC(C)C)C(=O)N3Cc4[nH]c5ccccc5c4C[C@H]3C(=O)O)oc12` [Compound 5, 7-MBF--(L)--Leu--(S)--Cyt--OH], the IC50 in series [1] (read-out: IC50) came to 94 nM.

For the compound `COc1cc(C(=O)N[C@@H](CC(C)C)C(=O)N2Cc3[nH]c4ccccc4c3C[C@H]2C(=O)O)nc2ccccc12` [Compound 6, 4-MQC--(L)--Leu--(S)--Cyt--OH], the half-maximal inhibitory concentration (IC50) in series [1] (read-out: IC50) was determined as 50 nM.

Regarding `CC(C)C[C@H](NC(=O)c1cc2cc(O)ccc2[nH]1)C(=O)N1Cc2[nH]c3ccccc3c2C[C@H]1C(=O)O` [Compound 7, 5-HIC--(L)--Leu--(S)--Cyt--OH], in series [1] (read-out: IC50), the IC50 stood at 23 nM.

Regarding `COc1ccc2[nH]c(C(=O)N[C@@H](Cc3ccccc3)C(=O)N3Cc4[nH]c5ccccc5c4C[C@H]3C(=O)O)cc2c1` [Compound 8, 5-MIC--(L)--Phe--(S)--Cyt--OH], in series [1] (read-out: IC50), the IC50 was found to be 100 nM.

Turning to `CC(C)C[C@H](NC(=O)[C@@H](N)CCO)C(=O)N1Cc2[nH]c3ccccc3c2C[C@H]1C(=O)O` [Compound 12, (L)--HomoSer--(L)--Leu--(S)--Cyt--OH], the half-inhibitory concentration (IC50) in series [1] (read-out: IC50) came out at 5000 nM.

Regarding `CC(C)C[C@H](NC(=O)c1ccoc1)C(=O)N1Cc2[nH]c3ccccc3c2C[C@H]1C(=O)O` [Compound 13, 3-Furoyl--(L)--Leu--(S)--Cyt--OH], the IC50 in series [1] (read-out: IC50) came to 400 nM. Besides, in series [2] (Concentration 9.4 × 10^-7 M), the “% Inhibition” value is on record as 41%.

`COc1ccc2[nH]c(C(=O)N[C@@H](Cc3c[nH]c4ccccc34)C(=O)N3Cc4[nH]c5ccccc5c4C[C@H]3C(=O)O)cc2c1` [Compound 14, 5-MIC--(L)--Trp--(S)--Cyt--OH]: in series [1] (read-out: IC50), the IC50 was 47 nM. Besides, the “% Inhibition” value in series [2] (Concentration 6.0 × 10^-7 M) is 37%.

As for `CC(C)C[C@H](NC(=O)c1ccc2ccccc2n1)C(=O)N1Cc2[nH]c3ccccc3c2C[C@H]1C(=O)O` [Compound 16, 2-QIC--(L)--Leu--(S)--Cyt--OH], the half-maximal inhibitory concentration (IC50) in series [1] (read-out: IC50) was determined as 28 nM. The figures for the “% Inhibition” value in series [2] (Concentration 8.0 × 10^-7 M) and in series [5] (Concentration 1.0 × 10^-5 M) were 23% and 51%, respectively.

In series [1], `COc1ccc2[nH]c(C(=O)N[C@@H](CC(C)C)C(=O)N3Cc4[nH]c5ccccc5c4C[C@H]3C(=O)O)cc2c1` [Compound 17, 5-MIC--(L)--Leu--(S)--Cyt--OH] showed a concentration for half-maximal inhibition (IC50) of 23 nM.

For the compound `COc1ccccc1CC(=O)N[C@@H](CC(C)C)C(=O)N1Cc2[nH]c3ccccc3c2C[C@H]1C(=O)O` [Compound 19, 2-MPA--(L)--Leu--(S)--Cyt--OH], the IC50 in series [1] (read-out: IC50) was found to be 260 nM.

Consider `CCOc1ccccc1C(=O)N[C@@H](CC(C)C)C(=O)N1Cc2[nH]c3ccccc3c2C[C@H]1C(=O)O` [Compound 20, 2-EBZ--(L)--Leu--(S)--Cyt--OH], for which the IC50 in series [1] (read-out: IC50) is 130 nM.

`Cc1cnc(C(=O)N[C@@H](CC(C)C)C(=O)N2Cc3[nH]c4ccccc4c3C[C@H]2C(=O)O)cn1` [Compound 21, 5-MPZ--(L)--Leu--(S)--Cyt--OH]: the 50% inhibitory concentration (IC50) in series [1] (read-out: IC50) worked out at 44 nM. Also, the “% Inhibition” value in series [5] (Concentration 5.5 × 10^-6 M) is given as 43%.

Consider `CC(C)C[C@H](NC(=O)c1ccc([N+](=O)[O-])cc1)C(=O)N1Cc2[nH]c3ccccc3c2C[C@H]1C(=O)O` [Compound 26, 4-NBZ--(L)--Leu--(S)--Cyt--OH], for which the half-inhibitory concentration (IC50) in series [1] (read-out: IC50) stood at 95 nM. For the same compound, in series [4], the “Residue after 60 Minutes” value worked out at 100% and the “Residue after 120 Minutes” value is reported as more than 95%.

Turning to `CC(C)C[C@H](NC(=O)c1ccc(Cl)cc1)C(=O)N1Cc2[nH]c3ccccc3c2C[C@H]1C(=O)O` [Compound 27, 4-CBZ--(L)--Leu--(S)--Cyt--OH], the IC50 in series [1] (read-out: IC50) was found to be 100 nM. The “% Inhibition” value in series [3] (Concentration 2.1 × 10^-5 M) was 28%.

Consider `CC(C)C[C@H](NC(=O)c1cccnc1)C(=O)N1Cc2[nH]c3ccccc3c2C[C@H]1C(=O)O` [Compound 28, 3-NIC--(L)--Leu--(S)--Cyt--OH], for which, in series [1] (read-out: IC50), the IC50 turned out to be 100 nM.

`CC(C)C[C@H](NC(=O)c1ccncc1)C(=O)N1Cc2[nH]c3ccccc3c2C[C@H]1C(=O)O` [Compound 29, 4-NIC--(L)--Leu--(S)--Cyt--OH]: in series [1] (read-out: IC50), the IC50 turned out to be 400 nM.

As for `COc1ccc(C(=O)N[C@@H](CC(C)C)C(=O)N2Cc3[nH]c4ccccc4c3C[C@H]2C(=O)O)cc1OC` [Compound 30, 3,4-DMB--(L)--Leu--(S)--Cyt--OH], the concentration for half-maximal inhibition (IC50) in series [1] (read-out: IC50) was found to be 380 nM. Also, in series [4], the “Residue after 60 Minutes” value turned out to be 100% and the “Residue after 120 Minutes” value is recorded as more than 95%.

Turning to `O=C(N[C@@H](Cc1c[nH]c2ccccc12)C(=O)N1Cc2[nH]c3ccccc3c2C[C@H]1C(=O)O)c1ccco1` [Compound 34, 2-FUR--(L)--Trp--(S)--Cyt--OH], in series [1] (read-out: IC50), the IC50 is 400 nM.

Take `NC(=O)C[C@H](NC(=O)c1ccco1)C(=O)N1Cc2[nH]c3ccccc3c2C[C@H]1C(=O)O` [Compound 35, 2-FUR--(L)--Asn--(S)--Cyt--OH]: the IC50 in series [1] (read-out: IC50) was 8000 nM.

Regarding `O=C(NCCCC[C@H](NC(=O)c1ccco1)C(=O)N1Cc2[nH]c3ccccc3c2C[C@H]1C(=O)O)OCC1c2ccccc2-c2ccccc21` [Compound 36, 2-FUR--(L)--Lys(Fmoc)--(S)--Cyt--OH], the half-inhibitory concentration (IC50) in series [1] (read-out: IC50) turned out to be 100 nM.

As for `CC(C)C[C@H](NC(=O)c1cccc2ccccc12)C(=O)N1Cc2[nH]c3ccccc3c2C[C@H]1C(=O)O` [Compound 37, 1-NAF--(L)--Leu--(S)--Cyt--OH], the IC50 in series [1] (read-out: IC50) stood at 210 nM.

Turning to `CC(C)C[C@H](NC(=O)c1ccc[nH]1)C(=O)N[C@@H](Cc1c[nH]c2ccccc12)C(=O)O` [Pirr--Leu--Trp], the figures for the “% Inhibition” value in series [2] (Concentration 9.0 × 10^-6 M) and in series [3] (Concentration 1.1 × 10^-5 M) were 33% and 15%, respectively.

Take `CC(C)C[C@H](NC(=O)c1cccs1)C(=O)N[C@@H](Cc1c[nH]c2ccccc12)C(=O)O` [Tiof--Leu--Trp]: the “% Inhibition” value in series [2] (Concentration 8.0 × 10^-6 M) came out at 60%.

Turning to `CC(C)C[C@H](NC(=O)[C@@H]1CCCCN1C(=O)OCc1ccccc1)C(=O)N[C@@H](Cc1c[nH]c2ccccc12)C(=O)O` [Z--Pip--Leu--Trp] (Cbz-[Pip]-Leu-Trp-OH), the “% Inhibition” value in series [2] (Concentration 9.0 × 10^-6 M) turned out to be 63%.

Regarding “BZS--(L)--Phe--(S)--Cyt--OH [Compound 32]”, in series [1] (read-out: IC50), the concentration for half-maximal inhibition (IC50) was determined as 2000 nM. For the same compound, the “% Inhibition” value in series [5] (Concentration 1.0 × 10^-5 M) is listed as 42%.

For MePro--Ala--Cyt, the “% Inhibition” value in series [2] (Concentration 9.0 × 10^-6 M) was determined as 39%.

The term IC50 denotes the concentration at which inhibition is half-maximal. Usually % Inhibition stands for the drop in the measured response relative to a control, in per cent. One may read the inhibition as the percentage by which the read-out fell short of the control.
